Laboratory results published in patent publication US20190263796A1, “LIM KINASE INHIBITORS, PHARMACEUTICAL COMPOSITION AND METHOD OF USE IN LIMK-MEDIATED DISEASES” (CELLIPSE, priority 2016, published 2019).

Legend:
[1] = system: Phospho-Ser3-Cofilin/Total Cofilin; assay: Western blot cofilin phosphorylation, MOLM-13; assay type: cell-based; settings: Homo sapiens, MOLM-13 cells
Description: (§1) MOLM-13 cell line was originally purchased from the Leibniz-Institut Deutsche Sammlung von Mikroorganismen und Zellkulturen GmbH (DSMZ). MOLM-13 cells are cultured in RPMI 1640 20% (v/v) FBS supplemented with 100 U/mL^−1 penicillin, 0.1 mg·mL^−1 streptomycin (PAN Biotech P06-07100). Cells were maintained at 37° C. with 5% CO2.
In a 6 wells plate (Falcon 353046), 2·10^6 cells in 1.5 mL medium are treated for 2 h with compounds. Cells are then collected and cell lysis is performed at 4° C. using RIPA buffer supplemented with protease inhibitors cocktail (Sigma-Aldrich P8340) and phosphatase inhibitors cocktail (Sigma-Aldrich P5726). Following centrifugation 30 min 15000 g 4° C., supernatants are mixed with Laemmli buffer and denaturation is performed by heating 5 min 95° C. 10 μL of samples are subjected to electrophoresis on 15% SDS-PAGE. After electro-transfer (Mini Transblot, Bio-Rad), the PVDF membrane (Merck-Millipore Immobilon P IPVH00010) is blocked with Tris Buffered Saline, pH 7.4 (TBS) with 0.1% Tween 20 and 5% BSA for 1 h RT under agitation. The membrane was rinsed 3 times 10 min at room temperature under agitation with TBS, 0.1% Tween-20 (TBST) and then 1 h at room temperature with anti-phospho-Ser3-cofilin (Cell Signaling Technology #3313, 1/1000 dilution) antibody or anti-cofilin (Cell Signaling Technology #3312, 1/1000 dilution) diluted in TBS, 0.1% Tween 20 and 1% BSA. The membrane is then rinsed 3 times 10 min at room temperature under agitation in TBST and incubated for 1 h with anti-rabbit secondary antibody, horseradish peroxidase conjugated (Jackson Immunoresearch #711-036-152) under agitation at room temperature. After three washes 10 min at room temperature in TBST, the detection of total or phosphorylated cofilin was performed using chemiluminescence kit ECL™ Plus (GE Healthcare RPN2132). For each concentration of compound, ratio between phosphorylated cofilin and total cofilin is determined. This ratio is then expressed as percentage of control ratio (i.e., ratio from DMSO treated cells). IC50 Phospho-Ser3-Cofilin/Total Cofilin is then determined.

[2] = system: Phospho-Ser3-Cofilin/Total Cofilin; assay: Western blot cofilin phosphorylation, THP-1; assay type: cell-based; settings: Homo sapiens; THP-1 cells; 2 h
Description: as §1, with “THP-1” for “MOLM-13”
(§2) In a 6 wells plate (Falcon 353046), 2·10^6 cells in 1.5 mL medium are treated for 2 h with compounds. Cells are then collected and cell lysis is performed at 4° C. using RIPA buffer supplemented with protease inhibitors cocktail (Sigma-Aldrich P8340) and phosphatase inhibitors cocktail (Sigma-Aldrich P5726). Following centrifugation 30 min 15000 g 4° C., supernatants are mixed with Laemmli buffer and denaturation is performed by heating 5 min 95° C. 10 μL of samples are subjected to electrophoresis on 15% SDS-PAGE. After electro-transfer (Mini Transblot, Bio-Rad), the PVDF membrane (Merck-Millipore Immobilon P IPVH00010) is blocked with Tris Buffered Saline, pH 7.4 (TBS) with 0.1% Tween 20 and 5% BSA for 1 h RT under agitation. […] For each concentration of compound, ratio between phosphorylated cofilin and total cofilin is determined. This ratio is then expressed as percentage of control ratio (i.e., ratio from DMSO treated cells). IC50 Phospho-Ser3-Cofilin/Total Cofilin is then determined.

Flt3(D835Y)(h) = target: T1, Flt3(D835Y)(h) (Homo sapiens, UniProt P36888, D835Y); assay: KinaseProfiler panel: Flt3(D835Y)(h); assay type: biochemical; settings: residual activity, 5 μM inhibitor, Km ATP
T1 construct: purchased Merck-Millipore (KinaseProfiler panel service)
Description: (§3) Kinase selectivity was performed on a panel of 58 recombinant protein kinases. The assays were performed in the presence of 5 μM inhibitor at the respective Km ATP for each kinase, using the KinaseProfiler panel service (Merck-Millipore). Residual activity measured in the presence of […] inhibitor is expressed as the percent of activity determined in the absence of inhibitor.

p70S6K(h) = target: T2, p70S6K(h) (Homo sapiens, UniProt P23443); assay: KinaseProfiler panel: p70S6K(h); assay type: biochemical; settings: residual activity, 5 μM inhibitor, Km ATP
T2 construct: purchased Merck-Millipore (KinaseProfiler panel service)
Description: as §3

c-RAF(h) = target: T3, c-RAF(h) (Homo sapiens, UniProt P04049); assay: KinaseProfiler panel: c-RAF(h); assay type: biochemical; settings: residual activity, 5 μM inhibitor, Km ATP
T3 construct: purchased Merck-Millipore (KinaseProfiler panel service)
Description: as §3

IKKα(h) = target: T4, IKKα(h) (Homo sapiens, UniProt O15111); assay: KinaseProfiler panel: IKKα(h); assay type: biochemical; settings: residual activity, 5 μM inhibitor, Km ATP
T4 construct: purchased Merck-Millipore (KinaseProfiler panel service)
Description: as §3

MRCKα(h) = target: T5, MRCKα(h) (Homo sapiens, UniProt Q5VT25); assay: KinaseProfiler panel: MRCKα(h); assay type: biochemical; settings: residual activity, 5 μM inhibitor, Km ATP
T5 construct: purchased Merck-Millipore (KinaseProfiler panel service)
Description: as §3

FAK(h) = target: T6, FAK(h) (Homo sapiens, UniProt Q05397); assay: KinaseProfiler panel: FAK(h); assay type: biochemical; settings: residual activity, 5 μM inhibitor, Km ATP
T6 construct: purchased Merck-Millipore (KinaseProfiler panel service)
Description: as §3

A-Raf(h) = target: T7, A-Raf(h) (Homo sapiens, UniProt P10398); assay: KinaseProfiler panel: A-Raf(h); assay type: biochemical; settings: residual activity, 5 μM inhibitor, Km ATP
T7 construct: purchased Merck-Millipore (KinaseProfiler panel service)
Description: as §3

TAK1(h) = target: T8, TAK1(h) (Homo sapiens, UniProt O43318); assay: KinaseProfiler panel: TAK1(h); assay type: biochemical; settings: residual activity, 5 μM inhibitor, Km ATP
T8 construct: purchased Merck-Millipore (KinaseProfiler panel service)
Description: as §3

cKit(D816V)(h) = target: T9, cKit(D816V)(h) (Homo sapiens, UniProt P10721, D816V); assay: KinaseProfiler panel: cKit(D816V)(h); assay type: biochemical; settings: residual activity, 5 μM inhibitor, Km ATP
T9 construct: purchased Merck-Millipore (KinaseProfiler panel service)
Description: as §3

cKit(h) = target: T10, cKit(h) (Homo sapiens, UniProt P10721); assay: KinaseProfiler panel: cKit(h); assay type: biochemical; settings: residual activity, 5 μM inhibitor, Km ATP
T10 construct: purchased Merck-Millipore (KinaseProfiler panel service)
Description: as §3

Aurora-A(h) = target: T11, Aurora-A(h) (Homo sapiens, UniProt O14965); assay: KinaseProfiler panel: Aurora-A(h); assay type: biochemical; settings: residual activity, 5 μM inhibitor, Km ATP
T11 construct: purchased Merck-Millipore (KinaseProfiler panel service)
Description: as §3

PDGFRα(h) = target: T12, PDGFRα(h) (Homo sapiens, UniProt P16234); assay: KinaseProfiler panel: PDGFRα(h); assay type: biochemical; settings: residual activity, 5 μM inhibitor, Km ATP
T12 construct: purchased Merck-Millipore (KinaseProfiler panel service)
Description: as §3

FGFR1(h) = target: T13, FGFR1(h) (Homo sapiens, UniProt P11362); assay: KinaseProfiler panel: FGFR1(h); assay type: biochemical; settings: residual activity, 5 μM inhibitor, Km ATP
T13 construct: purchased Merck-Millipore (KinaseProfiler panel service)
Description: as §3

BTK(h) = target: T14, BTK(h) (Homo sapiens, UniProt Q06187); assay: KinaseProfiler panel: BTK(h); assay type: biochemical; settings: residual activity, 5 μM inhibitor, Km ATP
T14 construct: purchased Merck-Millipore (KinaseProfiler panel service)
Description: as §3

PAK3(h) = target: T15, PAK3(h) (Homo sapiens, UniProt O75914); assay: KinaseProfiler panel: PAK3(h); assay type: biochemical; settings: residual activity, 5 μM inhibitor, Km ATP
T15 construct: purchased Merck-Millipore (KinaseProfiler panel service)
Description: as §3

cKit(V560G)(h) = target: T16, cKit(V560G)(h) (Homo sapiens, UniProt P10721, V560G); assay: KinaseProfiler panel: cKit(V560G)(h); assay type: biochemical; settings: residual activity, 5 μM inhibitor, Km ATP
T16 construct: purchased Merck-Millipore (KinaseProfiler panel service)
Description: as §3

TrkB(h) = target: T17, TrkB(h) (Homo sapiens, UniProt Q16620); assay: KinaseProfiler panel: TrkB(h); assay type: biochemical; settings: residual activity, 5 μM inhibitor, Km ATP
T17 construct: purchased Merck-Millipore (KinaseProfiler panel service)
Description: as §3

Flt1(h) = target: T18, Flt1(h) (Homo sapiens, UniProt P17948); assay: KinaseProfiler panel: Flt1(h); assay type: biochemical; settings: residual activity, 5 μM inhibitor, Km ATP
T18 construct: purchased Merck-Millipore (KinaseProfiler panel service)
Description: as §3

KDR(h) = target: T19, KDR(h) (Homo sapiens, UniProt P35968); assay: KinaseProfiler panel: KDR(h); assay type: biochemical; settings: residual activity, 5 μM inhibitor, Km ATP
T19 construct: purchased Merck-Millipore (KinaseProfiler panel service)
Description: as §3

[3] = system: Phospho-Ser3-Cofilin/Total Cofilin; assay: Western blot cofilin phosphorylation, Kasumi-1; assay type: cell-based; settings: Homo sapiens; Kasumi-1 cells; 2 h
Description: Kasumi-1 cell line was originally purchased from the American Type Culture Collection (ATCC). Kasumi-1 cells are cultured in RPMI 1640 20% (v/v) FBS supplemented with 100 U/mL^−1 penicillin, 0.1 mg·mL^−1 streptomycin (PAN Biotech P06-07100). Cells were maintained at 37° C. with 5% CO2.
as §2

T10 sequence (P10721 26-976): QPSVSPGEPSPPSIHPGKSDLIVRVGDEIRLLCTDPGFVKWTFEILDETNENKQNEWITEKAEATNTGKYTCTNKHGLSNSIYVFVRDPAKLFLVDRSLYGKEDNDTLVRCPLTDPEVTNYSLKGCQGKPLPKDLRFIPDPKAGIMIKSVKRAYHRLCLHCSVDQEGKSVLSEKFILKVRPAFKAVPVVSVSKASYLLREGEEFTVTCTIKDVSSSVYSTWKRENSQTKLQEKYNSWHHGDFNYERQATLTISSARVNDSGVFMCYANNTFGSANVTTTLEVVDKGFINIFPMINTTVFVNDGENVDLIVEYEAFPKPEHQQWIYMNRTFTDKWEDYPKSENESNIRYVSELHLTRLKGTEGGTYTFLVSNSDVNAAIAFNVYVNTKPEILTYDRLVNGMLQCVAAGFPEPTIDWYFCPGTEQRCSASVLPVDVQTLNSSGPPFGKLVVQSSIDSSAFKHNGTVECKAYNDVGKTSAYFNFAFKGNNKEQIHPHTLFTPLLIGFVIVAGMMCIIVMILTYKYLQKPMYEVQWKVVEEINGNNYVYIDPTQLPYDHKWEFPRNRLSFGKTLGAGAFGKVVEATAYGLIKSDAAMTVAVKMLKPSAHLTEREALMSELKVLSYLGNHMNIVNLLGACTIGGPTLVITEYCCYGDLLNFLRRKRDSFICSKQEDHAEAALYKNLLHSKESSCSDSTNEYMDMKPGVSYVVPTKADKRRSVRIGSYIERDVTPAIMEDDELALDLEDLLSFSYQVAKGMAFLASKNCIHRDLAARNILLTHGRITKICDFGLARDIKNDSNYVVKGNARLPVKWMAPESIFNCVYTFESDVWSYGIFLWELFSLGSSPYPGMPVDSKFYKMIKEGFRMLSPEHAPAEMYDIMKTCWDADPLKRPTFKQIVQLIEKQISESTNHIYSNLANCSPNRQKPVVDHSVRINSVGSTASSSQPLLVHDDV
T5 sequence (Q5VT25 whole entry): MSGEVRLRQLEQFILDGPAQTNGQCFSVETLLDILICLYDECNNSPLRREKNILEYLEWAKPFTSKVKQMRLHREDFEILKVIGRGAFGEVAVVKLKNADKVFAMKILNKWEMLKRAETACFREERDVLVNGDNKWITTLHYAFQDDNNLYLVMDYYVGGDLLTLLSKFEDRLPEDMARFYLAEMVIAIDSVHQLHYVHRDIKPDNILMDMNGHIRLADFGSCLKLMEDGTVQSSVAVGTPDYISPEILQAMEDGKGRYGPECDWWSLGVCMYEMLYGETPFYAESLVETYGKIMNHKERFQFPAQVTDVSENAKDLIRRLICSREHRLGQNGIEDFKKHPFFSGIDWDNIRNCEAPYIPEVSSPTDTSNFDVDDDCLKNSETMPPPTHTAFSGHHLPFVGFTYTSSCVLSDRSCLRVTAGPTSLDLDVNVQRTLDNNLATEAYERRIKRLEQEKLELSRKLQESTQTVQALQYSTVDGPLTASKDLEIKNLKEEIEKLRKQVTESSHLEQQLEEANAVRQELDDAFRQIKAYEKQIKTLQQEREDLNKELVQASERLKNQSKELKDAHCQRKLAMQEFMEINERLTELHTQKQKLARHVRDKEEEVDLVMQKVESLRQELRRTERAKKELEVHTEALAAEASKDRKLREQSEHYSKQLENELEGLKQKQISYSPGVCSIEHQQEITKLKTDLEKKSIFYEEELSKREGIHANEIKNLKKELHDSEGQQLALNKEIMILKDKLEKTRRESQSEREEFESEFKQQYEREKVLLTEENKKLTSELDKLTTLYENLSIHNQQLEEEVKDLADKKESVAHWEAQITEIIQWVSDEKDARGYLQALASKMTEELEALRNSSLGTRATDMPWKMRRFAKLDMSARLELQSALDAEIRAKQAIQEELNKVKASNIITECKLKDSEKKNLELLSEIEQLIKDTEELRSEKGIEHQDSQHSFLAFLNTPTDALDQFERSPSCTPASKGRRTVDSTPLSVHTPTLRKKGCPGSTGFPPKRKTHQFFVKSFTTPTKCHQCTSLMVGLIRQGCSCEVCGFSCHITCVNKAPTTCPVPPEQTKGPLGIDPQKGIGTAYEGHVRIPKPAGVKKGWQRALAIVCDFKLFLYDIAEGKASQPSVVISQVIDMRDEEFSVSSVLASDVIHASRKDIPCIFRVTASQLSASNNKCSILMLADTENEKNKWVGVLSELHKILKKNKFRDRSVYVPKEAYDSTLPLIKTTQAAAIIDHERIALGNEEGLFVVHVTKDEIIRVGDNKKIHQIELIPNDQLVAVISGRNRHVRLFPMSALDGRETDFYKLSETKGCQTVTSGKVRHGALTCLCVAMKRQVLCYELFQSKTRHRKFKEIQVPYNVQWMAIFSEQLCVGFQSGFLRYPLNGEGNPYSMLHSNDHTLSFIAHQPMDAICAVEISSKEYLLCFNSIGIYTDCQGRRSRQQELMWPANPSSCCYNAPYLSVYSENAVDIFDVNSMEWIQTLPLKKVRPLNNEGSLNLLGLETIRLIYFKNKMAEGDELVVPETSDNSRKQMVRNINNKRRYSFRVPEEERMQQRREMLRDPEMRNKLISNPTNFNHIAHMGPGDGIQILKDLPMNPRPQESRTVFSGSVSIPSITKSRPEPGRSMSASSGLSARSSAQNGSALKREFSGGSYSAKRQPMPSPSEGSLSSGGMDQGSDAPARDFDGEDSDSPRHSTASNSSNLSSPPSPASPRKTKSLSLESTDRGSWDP
T17 sequence (Q16620 32-822): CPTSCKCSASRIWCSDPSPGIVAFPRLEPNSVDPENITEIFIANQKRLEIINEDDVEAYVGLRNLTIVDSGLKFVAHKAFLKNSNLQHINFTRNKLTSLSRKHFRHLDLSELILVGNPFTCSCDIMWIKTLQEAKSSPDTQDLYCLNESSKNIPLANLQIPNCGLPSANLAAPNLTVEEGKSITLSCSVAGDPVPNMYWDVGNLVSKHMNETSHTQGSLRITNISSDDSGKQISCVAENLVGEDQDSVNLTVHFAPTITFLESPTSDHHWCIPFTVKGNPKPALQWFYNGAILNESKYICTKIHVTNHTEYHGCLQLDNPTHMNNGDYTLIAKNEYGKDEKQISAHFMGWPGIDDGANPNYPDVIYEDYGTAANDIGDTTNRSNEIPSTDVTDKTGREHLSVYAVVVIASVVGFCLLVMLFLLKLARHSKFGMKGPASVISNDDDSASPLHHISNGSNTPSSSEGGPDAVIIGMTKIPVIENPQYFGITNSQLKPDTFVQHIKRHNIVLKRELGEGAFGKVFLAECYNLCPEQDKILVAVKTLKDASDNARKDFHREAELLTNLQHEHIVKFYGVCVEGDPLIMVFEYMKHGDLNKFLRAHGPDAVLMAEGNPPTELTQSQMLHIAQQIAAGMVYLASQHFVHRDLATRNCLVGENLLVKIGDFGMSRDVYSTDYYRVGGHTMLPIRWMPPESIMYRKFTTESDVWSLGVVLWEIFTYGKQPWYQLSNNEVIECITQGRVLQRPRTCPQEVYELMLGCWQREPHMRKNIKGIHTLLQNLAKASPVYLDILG
T14 sequence (Q06187 whole entry): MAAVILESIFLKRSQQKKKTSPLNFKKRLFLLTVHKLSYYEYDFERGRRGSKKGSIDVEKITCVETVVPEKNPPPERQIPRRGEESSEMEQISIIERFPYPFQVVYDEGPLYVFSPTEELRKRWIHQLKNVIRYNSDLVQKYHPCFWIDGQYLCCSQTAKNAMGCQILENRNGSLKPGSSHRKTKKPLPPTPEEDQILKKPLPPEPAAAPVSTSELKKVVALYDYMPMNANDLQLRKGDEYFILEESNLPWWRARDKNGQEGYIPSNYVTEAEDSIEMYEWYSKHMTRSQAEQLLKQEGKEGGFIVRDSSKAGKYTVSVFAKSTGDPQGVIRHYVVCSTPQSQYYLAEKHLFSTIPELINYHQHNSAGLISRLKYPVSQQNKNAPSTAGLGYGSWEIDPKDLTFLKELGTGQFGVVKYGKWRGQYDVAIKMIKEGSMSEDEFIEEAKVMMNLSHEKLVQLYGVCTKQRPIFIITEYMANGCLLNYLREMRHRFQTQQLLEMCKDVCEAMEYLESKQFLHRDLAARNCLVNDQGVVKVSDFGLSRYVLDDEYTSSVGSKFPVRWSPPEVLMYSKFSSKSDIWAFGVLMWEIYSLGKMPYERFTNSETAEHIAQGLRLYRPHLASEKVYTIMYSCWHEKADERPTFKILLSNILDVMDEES
T9 sequence (P10721 26-976 D816V): as the sequence (P10721 26-976) above, with D791V counted along it
T16 sequence (P10721 26-976 V560G): as the sequence (P10721 26-976) above, with V535G counted along it
T2 sequence (P23443 whole entry): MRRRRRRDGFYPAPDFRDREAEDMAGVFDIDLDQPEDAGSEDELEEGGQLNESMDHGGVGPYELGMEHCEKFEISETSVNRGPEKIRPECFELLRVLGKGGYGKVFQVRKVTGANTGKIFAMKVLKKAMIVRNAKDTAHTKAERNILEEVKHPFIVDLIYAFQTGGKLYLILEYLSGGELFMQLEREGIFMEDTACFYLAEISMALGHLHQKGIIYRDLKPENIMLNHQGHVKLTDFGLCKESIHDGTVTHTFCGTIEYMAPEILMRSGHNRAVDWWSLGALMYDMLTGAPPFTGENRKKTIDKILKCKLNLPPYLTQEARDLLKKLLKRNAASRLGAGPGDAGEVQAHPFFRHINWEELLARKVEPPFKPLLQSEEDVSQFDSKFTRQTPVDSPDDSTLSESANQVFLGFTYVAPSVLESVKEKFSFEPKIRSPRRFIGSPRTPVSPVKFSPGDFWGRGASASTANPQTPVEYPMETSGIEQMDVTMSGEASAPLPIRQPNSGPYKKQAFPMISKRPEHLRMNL
T8 sequence (O43318 1-303 limits assumed): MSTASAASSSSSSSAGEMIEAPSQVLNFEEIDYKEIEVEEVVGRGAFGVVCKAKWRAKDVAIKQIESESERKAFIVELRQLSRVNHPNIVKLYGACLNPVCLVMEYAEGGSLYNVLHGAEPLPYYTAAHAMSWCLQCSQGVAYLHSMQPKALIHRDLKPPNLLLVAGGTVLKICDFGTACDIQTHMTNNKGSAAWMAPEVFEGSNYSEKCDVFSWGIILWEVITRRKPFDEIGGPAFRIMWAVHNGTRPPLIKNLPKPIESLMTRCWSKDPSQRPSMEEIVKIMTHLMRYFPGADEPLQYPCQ

CNC(=O)Cc1nc(-c2cccc(NS(=O)(=O)c3c(F)cccc3F)c2F)c(-c2ccnc(Nc3ccccc3)n2)s1 [Compound 9, 2-(4-(3-(2,6-difluorophenylsulfonamido)-2-fluorophenyl)-5-(2-(phenylamino)pyrimidin-4-yl)thiazol-2-yl)-N-methylacetamide]
IC50 ([1]; MOLM-13, 2 h): < 200 nM | IC50 [2]: < 200 nM

CC(C)(C)c1nc(-c2cccc(NS(=O)(=O)c3c(F)cccc3F)c2F)c(-c2ccnc(Nc3ccccc3)n2)s1 [Compound 1, N-(3-(2-(tert-butyl)-5-(2-(phenylamino)pyrimidin-4-yl)thiazol-4-yl)-2-fluorophenyl)-2,6-difluorobenzenesulfonamide]
activity at 5 µM (Flt3(D835Y)(h)): ≥ 50% | activity at 5 µM (p70S6K(h)): ≥ 50% | activity at 5 µM (c-RAF(h)): 3 to 10% | activity at 5 µM (IKKα(h)): ≥ 50% | activity at 5 µM (MRCKα(h)): ≥ 50% | activity at 5 µM (FAK(h)): ≥ 50% | activity at 5 µM (A-Raf(h)): ≥ 50% | activity at 5 µM (TAK1(h)): ≥ 50% | activity at 5 µM (cKit(D816V)(h)): ≥ 50% | activity at 5 µM (cKit(h)): ≥ 50% | activity at 5 µM (Aurora-A(h)): ≥ 50% | activity at 5 µM (PDGFRα(h)): ≥ 50% | activity at 5 µM (FGFR1(h)): ≥ 50% | activity at 5 µM (BTK(h)): 10 to 50% | activity at 5 µM (PAK3(h)): ≥ 50% | activity at 5 µM (cKit(V560G)(h)): 10 to 50% | activity at 5 µM (TrkB(h)): ≥ 50% | activity at 5 µM (Flt1(h)): 10 to 50% | activity at 5 µM (KDR(h)): 10 to 50%

O=S(=O)(Nc1cccc(-c2nc(CCO)sc2-c2ccnc(Nc3ccccc3)n2)c1F)c1c(F)cccc1F [8 (Na)]
IC50 ([1]; 2 h): < 200 nM | IC50 [3]: < 200 nM

O=S(=O)(Nc1cccc(-c2nc(CCO)sc2-c2ccnc(Nc3ccccc3)n2)c1F)c1c(F)cccc1F [Compound 8, 2,6-difluoro-N-(2-fluoro-3-(2-(2-hydroxyethyl)-5-(2-(phenylamino)pyrimidin-4-yl)thiazol-4-yl)phenyl)benzenesulfonamide]
IC50 [2]: < 200 nM
